Assay results as given in patent publication US9505730B2, “Mineralocorticoid receptor antagonists” (Merck Sharp & Dohme Corp., priority 2011, dated 2016).

Molecular target: T1, full-length human Mineralocorticoid Receptor (MR) (Homo sapiens, UniProt P08235)
T1 construct: host or cells: PathHunter CHO-K1 cells
T1 sequence (P08235 1-984): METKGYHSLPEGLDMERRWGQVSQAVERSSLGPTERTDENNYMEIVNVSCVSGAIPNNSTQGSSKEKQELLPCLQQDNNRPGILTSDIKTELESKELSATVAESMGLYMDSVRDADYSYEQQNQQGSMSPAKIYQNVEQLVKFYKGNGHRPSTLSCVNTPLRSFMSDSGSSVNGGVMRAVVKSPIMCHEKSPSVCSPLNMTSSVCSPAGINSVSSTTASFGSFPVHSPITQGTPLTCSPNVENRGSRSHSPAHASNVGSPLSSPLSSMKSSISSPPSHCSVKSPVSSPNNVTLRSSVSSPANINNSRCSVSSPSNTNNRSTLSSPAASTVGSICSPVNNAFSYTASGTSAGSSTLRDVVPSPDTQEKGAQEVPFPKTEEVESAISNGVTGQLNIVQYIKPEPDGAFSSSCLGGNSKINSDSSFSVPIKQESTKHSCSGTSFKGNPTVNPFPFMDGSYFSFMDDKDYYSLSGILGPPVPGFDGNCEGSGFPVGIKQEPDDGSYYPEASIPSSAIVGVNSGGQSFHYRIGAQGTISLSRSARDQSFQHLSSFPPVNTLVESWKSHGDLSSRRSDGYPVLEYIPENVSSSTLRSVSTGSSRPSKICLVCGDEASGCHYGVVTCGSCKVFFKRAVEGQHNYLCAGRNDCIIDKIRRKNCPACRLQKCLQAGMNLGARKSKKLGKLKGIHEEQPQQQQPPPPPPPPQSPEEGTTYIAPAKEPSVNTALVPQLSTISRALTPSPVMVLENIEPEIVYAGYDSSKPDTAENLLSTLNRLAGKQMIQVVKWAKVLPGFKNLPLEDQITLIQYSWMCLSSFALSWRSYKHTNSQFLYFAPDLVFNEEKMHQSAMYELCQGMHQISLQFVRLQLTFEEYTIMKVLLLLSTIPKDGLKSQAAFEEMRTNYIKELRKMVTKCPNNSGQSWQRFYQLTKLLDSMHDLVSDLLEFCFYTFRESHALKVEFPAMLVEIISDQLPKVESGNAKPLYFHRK
Test: human MR NH Pro assay (PathHunter Protein:Protein interaction assay, MR antagonism)
Type: cell-based
Conditions: PathHunter CHO-K1 cells overexpressing human MR; aldosterone 0.3 nM; 6 hours at 37° C.; luminescence; read-out: IC50 rating
Description: The activity of the compounds of the present invention regarding mineralocorticoid receptor antagonism was evaluated using the following assay.
Assessment of Mr Potency in Hmr Nh Pro Assay
The human MR NH Pro assay is a commercially available PathHunter™ Protein: Protein interaction assay (DiscoveRx; http://www.discoverx.com/nhrs/prod-nhrs.php) that measures the ability of compounds to antagonize full-length human Mineralocorticoid Receptor (MR) binding to a coactivator peptide. PathHunter™ CHO-K1 cells that overexpress human MR (Cat #93-0456C2, Lot No: 09B0913) were cultured in growth media (F12K w/Glutamine and phenol red (Gibco 11765-047) supplemented with 10% HI FBS (Gibco 16000); 0.25 mg/ml Hygromycin in PBS (Invitrogen 10687-010, 50 mg/ml); 100 I.U./mL and 100 μg/mL Pen/Strep (Gibco 15140-122); 0.6 mg/mL Geneticin).
Compounds were assessed for MR antagonist activity by incubating the cells with a titrating dose of compound in F12K w/Glutamine and phenol red culture media (Invitrogen 11765-047) supplemented with 1% Charcoal/Dextran Treated FBS (Hyclone #SH30068.01) and aldosterone (0.3 nM) for 6 hours at 37° C.
• F12K w/Glutamine and phenol red (Gibco 11765-047) • 10% HI FBS (Gibco 16000) • 0.25 mg/ml Hygromycin in PBS (Invitrogen 10687-010, 50 mg/ml) • 100 I.U./mL and 100 μg/mL Pen/Strep (Gibco 15140-122) • 0.6 mg/mL Geneticin (Gibco 10131, 50 mg/ml) 2. Assay media: • F12K w/Glutamine and phenol red (Invitrogen 11765-047) • 1% Charcoal/Dextran Treated FBS (Hyclone #SH30068.01) 3. 3× PathHunter Detection Reagents (Cat#93-0001) (need ˜6 ml/plate). […] Control Agonist: Aldosterone: Sigma cat #A9477 • Prepare stock solution—10 μM in DMSO kept at −20 C • for assay, dilute in assay media to 1.8 or 6 nM (6× of final concentration=about 0.3 nM to about 1.0 nM) 5. Cell line: PathHunter CHO-K1 MR cells Cat #93-0456C2, Lot No: 09B0913, from operation liquid nitrogen stock. 6. Control Antagonist: Spironolactone: Sigma #S-3378 and Eplerenone Sigma #107724-20-9 (10 mM stock concentration also prepared in DMSO and stored at −20° C.). Methods: Assay Set up and Calculations: • 1. Cells were grown in F12+FBS+Hygromycin+pen/strep+Genetin. • 2. Cells were collected with 0.05% trypsin and the cell suspension was spun and resuspended in a volume of F12+1.5% CD-FBS and counted. • 3. The cells were resuspended to 4×10^5 cells/mL. • 4. Cells were (25 μL/well) added to the wells of a 384 well plate. • 5. The plate was then incubated at 37° C. over night in a humidified incubator with 5% CO2. • 6. Test compounds were titrated starting at 4.4 mM, 10-point titration in 1:3 dilution. • 7. Aldosterone was diluted in assay media to 1.8 nM or 6 nM from 10 μM stock (final concentration to be about 0.3 nM to about 1.0 nM). Protocol for 384 well plate format: 6 hr treatment: • 1. Plated 10K exponentially growing cells/well (25 μL) resuspended in assay media to each well using the Multidrop (Thermo Electron). Use white wall, clear bottom assay plates (Costar #3570) and incubate overnight at 37° C., 5% CO2. • 2. 0.25 μL 120× test compound (final DMSO concentration should be <1%) was added to each well n=2, 10 point titrations starting at 36.7 μM final concentration. • 3. 5 μL 6× agonist (final aldosterone concentration should be about 0.3 nM to about 1.0 nM) was added to all wells using the PlateMate Plus.
(ThermoFisher) (except those wells in columns 23 and 24) • 4. 5 μL of assay media was added to all wells in column 23 and 24. • 5. Plates were incubated 6 hrs at 37° C., 5% CO2. • 6. 15 μL 3× DiscoveRx detection reagent was added to each well. • 7. Plates were incubated for 1 hour at room temperature (plates stored in the dark). • 8. Plates were read on Envision (PerkinElmer) luminesence plate reader and analyzed using ADA. LC/MS method: (LC2M_Low/Med_Positive mode). LC Conditions: 5-98% CH3CN/H2O+v 0.1% TFA over 1.25 min; Flow Rate=1.5 mL/min, UV wavelength 254 nm; Column: Waters XTerra® MS C18 3.5 μm 2.1×20 mm IS™

For C[C@H](c1ccc(F)cc1)N1C(=O)O[C@](Cc2ccccc2)(C(=O)Nc2ccccc2)C1=O [Compound 19, (5R)-5-Benzyl-3-[(1R)-1-(4-fluorophenyl)ethyl]-2,4-dioxo-N-phenyl-1,3-oxazolidine-5-carboxamide], which IC50 is on record?
Its IC50 is 100 to 500 nM.

With C[C@H](c1ccc(F)cc1)N1C(=O)O[C@](Cc2ccccc2)(C(=O)Nc2cccnc2)C1=O [Compound 20] as the molecule, how does the IC50 read?
Its IC50 is 100 to 500 nM.

With C[C@H](c1ccccc1)N1C(=O)O[C@](Cc2ccccc2)(C(=O)N2CCc3ccccc3C2)C1=O [Compound 21, (5R)-Benzyl-5-(3,4-dihydroisoquinolin-2(1H)-ylcarbonyl)-3-[(1R)-1-phenylethyl]-1,3-oxazolidine-2,4-dione] as the molecule, how does the IC50 read?
Its IC50 is 100 to 500 nM.

C[C@H](c1ccccc1)N1C(=O)O[C@](Cc2ccccc2)(C(=O)N2Cc3ccccc3C2)C1=O [Compound 22, (5R)-Benzyl-5-(1,3-dihydro-2H-isoindol-2-ylcarbonyl)-3-[(1R)-1-phenylethyl]-1,3-oxazolidine-2,4-dione] was tested. Which IC50 did it give?
Its IC50 is 100 to 500 nM.
